Blank lines part the entries; values can stand above or below the compound they belong to.
Assays:
[1] = system: angiotensin I converting enzyme; test: inhibition of pressor response following angiotensin I challenge in the dog; type: in vivo; conditions: oral dose of 10 mg/Kg
[2] = system: angiotensin I converting enzyme; test: inhibition of pressor response following angiotensin I challenge in normotensive rats; type: in vivo; conditions: rat
Protocol: The inhibition of said enzyme prevents the generation of angiotensin II from I and, therefore, attenuates any pressure response following an angiotensin I challenge.
The corresponding in vivo test is performed with male, normotensive rats, which are anesthetized with 100-120 mg/kg i.p. of sodium ethyl-(1-methylpropyl)malonylthiourea. A femoral artery and saphenous vein are cannulated for direct blood pressure measurement and i.v. administration of angiotensin I and compounds of this invention. After the basal blood pressure is stabilized, pressor responses to 3 challenges of 0.33 μg/kg of angiotensin I i.v., in 5 minute intervals, are obtained. Such pressure responses are again obtained 5, 10, 15, 30 and 60 minutes after either i.v., or p.o. administration (stomach tube) of the compounds to be tested, and compared with the initial responses.

[3] = system: spontaneous hypertensive rat; test: blood pressure and heart rate in the spontaneous hypertensive rat; type: in vivo
Protocol: The in vivo lowering effect on the blood pressure is recorded either directly by means of a catheter, for example placed in the dog's femoral artery, or indirectly by sphygmomanometry at the rat's tail, and a transducer, expressing the blood pressure prior and after dosing in mm Hg. Thus, for example, representative members of the compounds of this invention, illustrated by the Examples herein, are very effective in hypertensive rats and dogs at p.o.-doses as low or lower than 50 mg/kg/day.

[4] = biological target: T1, angiotensin-converting enzyme (Oryctolagus cuniculus, UniProt P12822); test: in vitro inhibition of the angiotensin-converting enzyme; type: biochemical, rabbit; conditions: hippuryl-histidyl-leucine substrate, 37°, 30 minutes; enzyme from lungs of adult male rabbits
T1 construct: freshly prepared from lungs of adult male rabbits; from tissue; host or cells: lungs of adult male rabbits
T1 sequence (P12822 34-1310): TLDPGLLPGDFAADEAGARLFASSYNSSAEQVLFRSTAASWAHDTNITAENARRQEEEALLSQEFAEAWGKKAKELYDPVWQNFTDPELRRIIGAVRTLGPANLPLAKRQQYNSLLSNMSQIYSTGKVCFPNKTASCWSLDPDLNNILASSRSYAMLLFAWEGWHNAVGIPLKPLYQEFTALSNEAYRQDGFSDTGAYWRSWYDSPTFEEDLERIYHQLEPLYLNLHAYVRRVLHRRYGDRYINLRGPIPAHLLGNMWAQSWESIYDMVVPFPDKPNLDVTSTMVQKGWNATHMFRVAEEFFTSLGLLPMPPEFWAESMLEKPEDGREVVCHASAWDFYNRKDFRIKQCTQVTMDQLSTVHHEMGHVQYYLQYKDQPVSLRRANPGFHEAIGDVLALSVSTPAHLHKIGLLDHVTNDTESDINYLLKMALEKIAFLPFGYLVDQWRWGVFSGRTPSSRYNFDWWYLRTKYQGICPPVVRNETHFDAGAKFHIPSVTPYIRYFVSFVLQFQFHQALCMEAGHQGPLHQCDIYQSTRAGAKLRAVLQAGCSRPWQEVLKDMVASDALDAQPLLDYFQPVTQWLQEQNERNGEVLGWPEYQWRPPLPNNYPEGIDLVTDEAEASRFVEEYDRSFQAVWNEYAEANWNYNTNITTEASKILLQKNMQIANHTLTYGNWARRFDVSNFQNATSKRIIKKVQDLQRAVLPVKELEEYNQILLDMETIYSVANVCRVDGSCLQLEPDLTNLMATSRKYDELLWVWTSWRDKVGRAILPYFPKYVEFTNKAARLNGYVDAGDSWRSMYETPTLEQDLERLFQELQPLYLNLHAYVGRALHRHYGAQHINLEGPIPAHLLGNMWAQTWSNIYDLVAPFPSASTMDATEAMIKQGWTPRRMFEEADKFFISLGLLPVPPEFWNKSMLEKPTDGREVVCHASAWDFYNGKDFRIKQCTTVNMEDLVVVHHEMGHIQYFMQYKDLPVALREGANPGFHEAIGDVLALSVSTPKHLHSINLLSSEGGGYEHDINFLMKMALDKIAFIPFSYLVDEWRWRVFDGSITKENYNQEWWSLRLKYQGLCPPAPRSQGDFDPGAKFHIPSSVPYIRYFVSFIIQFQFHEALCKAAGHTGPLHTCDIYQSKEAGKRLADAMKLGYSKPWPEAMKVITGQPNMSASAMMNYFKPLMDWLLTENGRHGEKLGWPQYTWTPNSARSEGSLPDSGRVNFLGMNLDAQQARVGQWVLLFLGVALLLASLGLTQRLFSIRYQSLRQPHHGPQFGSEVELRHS
Protocol: Biophys. Acta 293, 451 (1973). According to this method said compounds are dissolved at about 1 mM concentrations in phosphate buffer, externally cooled with ice. […] Said solutions are incubated at 37° for 30 minutes and combined with 0.75 ml of 0.6 N aqueous sodium hydroxide to stop further reaction. Then 100 μl of o-phthalaldehyde are added at room temperature, and 10 minutes later 100 μl of 6N hydrochloric acid. These samples are read against water in a spectrophotometer set at 360 nm, and the optical densities thereof estimated. They are corrected for the standard curve via a conversion factor expressing nanomoles of histidyl-leucine formed during said 30 minute incubation period. The results are plotted against drug concentration to determine the IC50, i.e., the drug concentration which gives half the activity of the control sample containing no drug.

Structure (SMILES): C[C@H](C[C@@H](C)C(=O)N1c2ccccc2C[C@H]1C(=O)O)C(=O)OCC(=O)OC1CC2CCC1(C)C2(C)C (stereo partly drawn) [1-4-(l-bornyloxycarbonylmethoxycarbonyl)-2R,4R-dimethylbutanoyl-indoline-2S-carboxylic acid]
- inhibition of the pressor response following angiotensin I challenge [1]: inhibit the pressor response

Structure (SMILES): CCOC(=O)[C@H](C)C[C@@H](C)C(=O)N1c2ccccc2C[C@H]1C(=O)O [1-(4-carboethoxy-2R,4R-dimethylbutanoyl)-indoline-2S-carboxylic acid]
- inhibition of the pressor response following angiotensin I challenge ([2]; dose as low as 0.3 mg/Kg i.v.): about 50%
- inhibition of the pressor response following angiotensin I challenge ([2]; dose as low as 4 mg/Kg p.o.): about 50%
- decrease of heart rate ([3]; 30 mg/Kg p.o.): decrease heart rate
- lowering of blood pressure ([3]; 30 mg/Kg p.o.): significantly lower blood pressure

Structure (SMILES): CCOC(=O)[C@H](CCc1ccccc1)C[C@@H](C)C(=O)N1c2ccccc2C[C@H]1C(=O)O [1-(4-carboethoxy-2R-methyl-4R-phenethylbutanoyl)indoline-2S-carboxylic acid]
- decrease of heart rate ([3]; 10 mg/Kg p.o.): decrease heart rate
- lowering of blood pressure ([3]; 10 mg/Kg p.o.): significantly lower blood pressure

Structure (SMILES): C[C@H](C[C@@H](CCc1ccccc1)C(=O)O)C(=O)N1c2ccccc2C[C@H]1C(=O)O [1-(4-carboxy-2R-methyl-4R-phenethylbutanoyl)indoline-2S-carboxylic acid]
- IC50 [4]: ~5 nM

Structure (SMILES): C[C@H](C[C@@H](C)C(=O)N1c2ccccc2C[C@H]1C(=O)O)C(=O)OCOC(=O)C(C)(C)C [1-[4-(pivaloyloxymethoxycarbonyl)-2R,4R-dimethylbutanoyl]-indoline-2S-carboxylic acid]
- inhibition of the pressor response following angiotensin I challenge [1]: inhibit the pressor response

Other lines, results leading:

- IC50 [4]: ~30 nM
Structure (SMILES): C[C@H](C[C@@H](C)C(=O)N1c2ccccc2C[C@H]1C(=O)O)C(=O)O [1-(4-carboxy-2R,4R-dimethylbutanoyl)-indoline-2S-carboxylic acid]

- IC50 [4]: ~40 nM
Structure (SMILES): C[C@H](CCC(=O)O)C(=O)N1c2ccccc2C[C@H]1C(=O)O [1-(4-carboxy-2R-methylbutanoyl)-indoline-2S-carboxylic acid]

- IC50 [4]: ~300 nM
Structure (SMILES): O=C(O)CCCC(=O)N1c2ccccc2C[C@H]1C(=O)O [1-(4-carboxybutanoyl)-indoline-2S-carboxylic acid]
